Laboratory results from ChEMBL document CHEMBL2021812, “Aryltriflates as a Neglected Moiety in Medicinal Chemistry: A Case Study from a Lead Optimization of CXCL8 Inhibitors” (ACS Med Chem Lett, 2011).
Activity calls are given as the source filed them. The calls are words filed in the database; no cut-off is given here.

Target: CYP2C19 (Homo sapiens, UniProt P33261)
Experiment: Inhibition of CYP2C19 using DBF as substrate at 10 uM
Assay type: ADME
Details: probe DBF

Sequence of CYP2C19 (P33261 whole entry): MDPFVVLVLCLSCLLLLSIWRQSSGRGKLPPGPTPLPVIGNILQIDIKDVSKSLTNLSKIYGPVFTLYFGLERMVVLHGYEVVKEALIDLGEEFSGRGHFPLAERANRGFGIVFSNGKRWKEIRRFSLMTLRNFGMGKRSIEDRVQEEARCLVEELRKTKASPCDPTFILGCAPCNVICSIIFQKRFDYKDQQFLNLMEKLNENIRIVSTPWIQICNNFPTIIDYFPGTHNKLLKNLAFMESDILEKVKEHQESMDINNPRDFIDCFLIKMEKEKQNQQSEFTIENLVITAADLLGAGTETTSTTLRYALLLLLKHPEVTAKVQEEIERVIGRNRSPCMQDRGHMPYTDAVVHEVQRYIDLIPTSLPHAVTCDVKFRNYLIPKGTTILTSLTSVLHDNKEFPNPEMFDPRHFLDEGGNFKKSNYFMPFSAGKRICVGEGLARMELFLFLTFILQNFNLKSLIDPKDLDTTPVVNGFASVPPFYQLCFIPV

Structure (SMILES)	inhibition at 10 µM
C[C@@H](C(=O)Nc1nnc[nH]1)c1ccc(OS(=O)(=O)C(F)(F)F)cc1	21%
C[C@@H](C(=O)Nc1ncco1)c1ccc(OS(=O)(=O)C(F)(F)F)cc1	90%
C[C@@H](C(=O)Nc1nccs1)c1ccc(OS(=O)(=O)C(F)(F)F)cc1	87%
Cc1csc(NC(=O)[C@H](C)c2ccc(OS(=O)(=O)C(F)(F)F)cc2)n1	90%
C[C@@H](C(=O)Nc1ccccn1)c1ccc(OS(=O)(=O)C(F)(F)F)cc1	97%

Target: CYP2C9 (Homo sapiens, UniProt P11712)
Sequence (P11712 whole entry): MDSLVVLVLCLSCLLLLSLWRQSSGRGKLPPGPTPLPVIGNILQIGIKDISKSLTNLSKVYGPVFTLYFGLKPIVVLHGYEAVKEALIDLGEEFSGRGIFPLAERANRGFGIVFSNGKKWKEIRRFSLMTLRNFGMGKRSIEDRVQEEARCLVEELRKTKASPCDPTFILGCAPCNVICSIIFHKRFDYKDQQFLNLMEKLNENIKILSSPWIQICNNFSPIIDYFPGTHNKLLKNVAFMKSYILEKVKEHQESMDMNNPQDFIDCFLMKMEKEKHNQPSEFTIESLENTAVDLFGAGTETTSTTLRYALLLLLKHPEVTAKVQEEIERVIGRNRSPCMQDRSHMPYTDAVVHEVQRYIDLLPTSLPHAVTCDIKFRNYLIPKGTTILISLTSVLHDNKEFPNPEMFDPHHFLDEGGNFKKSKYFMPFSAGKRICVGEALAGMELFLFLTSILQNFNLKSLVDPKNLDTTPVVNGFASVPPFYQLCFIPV
Experiment: Inhibition of CYP2C9 using 7MFC as substrate at 10 uM
Assay type: ADME
Details: probe 7MFC

Structure (SMILES)	inhibition at 10 µM
C[C@@H](C(=O)Nc1nnc[nH]1)c1ccc(OS(=O)(=O)C(F)(F)F)cc1	< 5%
C[C@@H](C(=O)Nc1ncco1)c1ccc(OS(=O)(=O)C(F)(F)F)cc1	70%
C[C@@H](C(=O)Nc1nccs1)c1ccc(OS(=O)(=O)C(F)(F)F)cc1	53%
Cc1csc(NC(=O)[C@H](C)c2ccc(OS(=O)(=O)C(F)(F)F)cc2)n1	60%
C[C@@H](C(=O)Nc1ccccn1)c1ccc(OS(=O)(=O)C(F)(F)F)cc1	37%

Target: CYP3A4 (Homo sapiens, UniProt P08684)
Sequence (P08684 whole entry): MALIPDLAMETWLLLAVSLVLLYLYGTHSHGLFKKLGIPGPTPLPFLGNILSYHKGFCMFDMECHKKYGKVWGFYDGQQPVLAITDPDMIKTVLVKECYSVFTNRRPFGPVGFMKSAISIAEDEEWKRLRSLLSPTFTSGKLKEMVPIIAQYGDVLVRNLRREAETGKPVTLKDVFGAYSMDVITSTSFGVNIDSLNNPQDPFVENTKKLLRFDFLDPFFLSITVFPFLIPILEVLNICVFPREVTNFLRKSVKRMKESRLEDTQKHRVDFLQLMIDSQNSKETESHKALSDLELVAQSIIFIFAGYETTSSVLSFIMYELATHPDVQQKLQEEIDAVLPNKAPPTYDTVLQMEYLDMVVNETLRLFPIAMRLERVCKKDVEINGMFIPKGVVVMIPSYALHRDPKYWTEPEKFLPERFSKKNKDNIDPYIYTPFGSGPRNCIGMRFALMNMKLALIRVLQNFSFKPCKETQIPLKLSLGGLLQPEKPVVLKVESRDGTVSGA
Experiment: Inhibition of CYP3A4 using BFC as substrate at 10 uM
Assay type: ADME
Details: probe BFC

Structure (SMILES)	inhibition at 10 µM
C[C@@H](C(=O)Nc1nnc[nH]1)c1ccc(OS(=O)(=O)C(F)(F)F)cc1	8%
C[C@@H](C(=O)Nc1ncco1)c1ccc(OS(=O)(=O)C(F)(F)F)cc1	44%
C[C@@H](C(=O)Nc1nccs1)c1ccc(OS(=O)(=O)C(F)(F)F)cc1	52%
Cc1csc(NC(=O)[C@H](C)c2ccc(OS(=O)(=O)C(F)(F)F)cc2)n1	60%
C[C@@H](C(=O)Nc1ccccn1)c1ccc(OS(=O)(=O)C(F)(F)F)cc1	15%

Target: CYP2D6 (Homo sapiens, UniProt P10635)
Sequence (P10635 whole entry): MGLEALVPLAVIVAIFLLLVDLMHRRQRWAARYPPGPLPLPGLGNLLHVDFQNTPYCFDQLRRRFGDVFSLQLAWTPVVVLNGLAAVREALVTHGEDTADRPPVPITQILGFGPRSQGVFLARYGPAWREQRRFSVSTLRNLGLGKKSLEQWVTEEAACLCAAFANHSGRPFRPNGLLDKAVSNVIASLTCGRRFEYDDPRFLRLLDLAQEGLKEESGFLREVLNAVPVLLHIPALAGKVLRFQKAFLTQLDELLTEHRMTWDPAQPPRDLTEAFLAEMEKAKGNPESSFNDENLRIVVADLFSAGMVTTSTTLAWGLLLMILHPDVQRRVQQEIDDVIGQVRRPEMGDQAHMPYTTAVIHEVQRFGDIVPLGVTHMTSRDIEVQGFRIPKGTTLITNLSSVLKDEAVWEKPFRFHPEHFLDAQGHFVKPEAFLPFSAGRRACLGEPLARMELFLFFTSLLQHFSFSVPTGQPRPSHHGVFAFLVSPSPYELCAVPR
Experiment: Inhibition of CYP2D6 using AMMC as substrate at 10 uM
Assay type: ADME
Details: probe AMMC

Structure (SMILES)	inhibition at 10 µM
C[C@@H](C(=O)Nc1nnc[nH]1)c1ccc(OS(=O)(=O)C(F)(F)F)cc1	< 5%
C[C@@H](C(=O)Nc1ncco1)c1ccc(OS(=O)(=O)C(F)(F)F)cc1	< 5%
C[C@@H](C(=O)Nc1nccs1)c1ccc(OS(=O)(=O)C(F)(F)F)cc1	26%
Cc1csc(NC(=O)[C@H](C)c2ccc(OS(=O)(=O)C(F)(F)F)cc2)n1	< 5%
C[C@@H](C(=O)Nc1ccccn1)c1ccc(OS(=O)(=O)C(F)(F)F)cc1	21%

Target: T1, CYP1A2 (Homo sapiens, UniProt P05177)
T1 sequence (P05177 whole entry): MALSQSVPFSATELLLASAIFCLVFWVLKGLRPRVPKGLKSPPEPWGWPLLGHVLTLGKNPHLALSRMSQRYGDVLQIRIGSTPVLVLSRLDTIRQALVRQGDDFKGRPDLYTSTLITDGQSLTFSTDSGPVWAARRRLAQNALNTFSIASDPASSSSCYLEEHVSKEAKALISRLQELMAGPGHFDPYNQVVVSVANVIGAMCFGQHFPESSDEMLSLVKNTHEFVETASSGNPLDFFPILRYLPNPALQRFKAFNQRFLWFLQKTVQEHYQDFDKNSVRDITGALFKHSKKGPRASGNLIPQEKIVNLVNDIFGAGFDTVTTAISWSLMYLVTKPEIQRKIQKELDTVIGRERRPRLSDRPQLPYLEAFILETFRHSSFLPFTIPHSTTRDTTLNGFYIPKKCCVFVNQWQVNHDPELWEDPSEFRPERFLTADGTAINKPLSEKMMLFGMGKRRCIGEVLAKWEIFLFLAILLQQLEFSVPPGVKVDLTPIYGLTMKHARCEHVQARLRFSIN
Experiment: Inhibition of CYP1A2 using CEC as substrate at 10 uM
Assay type: ADME
Details: probe CEC

Structure (SMILES)	inhibition at 10 µM
C[C@@H](C(=O)Nc1nnc[nH]1)c1ccc(OS(=O)(=O)C(F)(F)F)cc1	< 5%
C[C@@H](C(=O)Nc1ncco1)c1ccc(OS(=O)(=O)C(F)(F)F)cc1	15%
C[C@@H](C(=O)Nc1nccs1)c1ccc(OS(=O)(=O)C(F)(F)F)cc1	36%
Cc1csc(NC(=O)[C@H](C)c2ccc(OS(=O)(=O)C(F)(F)F)cc2)n1	16%
C[C@@H](C(=O)Nc1ccccn1)c1ccc(OS(=O)(=O)C(F)(F)F)cc1	< 5%

Target: T2, C-X-C chemokine receptor type 2 (Homo sapiens) (UniProt P25025)
T2 sequence (whole entry): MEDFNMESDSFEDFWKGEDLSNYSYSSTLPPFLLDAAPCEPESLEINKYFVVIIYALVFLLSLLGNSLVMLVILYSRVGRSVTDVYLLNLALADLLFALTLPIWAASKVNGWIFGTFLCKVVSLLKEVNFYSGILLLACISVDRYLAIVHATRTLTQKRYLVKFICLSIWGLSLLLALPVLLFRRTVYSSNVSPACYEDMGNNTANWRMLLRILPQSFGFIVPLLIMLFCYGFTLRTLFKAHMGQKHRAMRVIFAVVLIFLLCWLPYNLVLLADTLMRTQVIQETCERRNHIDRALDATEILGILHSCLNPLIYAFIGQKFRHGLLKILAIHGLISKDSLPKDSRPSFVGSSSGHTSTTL
Experiment: Inhibition of CXCR2 in human polymorphonucleate cells assessed as inhibition of CXCL1-induced chemotaxis at 10^-8 M incubated for 15 mins prior to CXCL1-induction measured after 45 mins
Details: not given

Structure (SMILES)	inhibition
C[C@H](C(=O)O)c1ccc(OS(=O)(=O)C(F)(F)F)cc1	inactive
CC(C)Cc1ccc([C@@H](C)C(=O)NS(C)(=O)=O)cc1 [REPARIXIN]	22%
C[C@@H](C(=O)NS(=O)(=O)C1CC1)c1ccc(OS(=O)(=O)C(F)(F)F)cc1	45%
C[C@@H](C(=O)Nc1nnc[nH]1)c1ccc(OS(=O)(=O)C(F)(F)F)cc1	45%
C[C@@H](C(=O)NOCC1CC1)c1ccc(OS(=O)(=O)C(F)(F)F)cc1	35%
C[C@@H](C(=O)Nc1nnco1)c1ccc(OS(=O)(=O)C(F)(F)F)cc1	48%
C[C@H](C(=O)NS(C)(=O)=O)c1ccc(OS(=O)(=O)C(F)(F)F)cc1	inactive
C[C@@H](C(=O)Nc1ncco1)c1ccc(OS(=O)(=O)C(F)(F)F)cc1	46%
C[C@@H](C(=O)Nc1nccs1)c1ccc(OS(=O)(=O)C(F)(F)F)cc1	55%
Cc1csc(NC(=O)[C@H](C)c2ccc(OS(=O)(=O)C(F)(F)F)cc2)n1	50%
C[C@@H](C(=O)Nc1ccccn1)c1ccc(OS(=O)(=O)C(F)(F)F)cc1	45%

Target: Interleukin-8 receptors, CXCR1/CXCR2 (Homo sapiens) (UniProt P25025+P25024)
Sequence (P25024 whole entry, looked up, one chain of several): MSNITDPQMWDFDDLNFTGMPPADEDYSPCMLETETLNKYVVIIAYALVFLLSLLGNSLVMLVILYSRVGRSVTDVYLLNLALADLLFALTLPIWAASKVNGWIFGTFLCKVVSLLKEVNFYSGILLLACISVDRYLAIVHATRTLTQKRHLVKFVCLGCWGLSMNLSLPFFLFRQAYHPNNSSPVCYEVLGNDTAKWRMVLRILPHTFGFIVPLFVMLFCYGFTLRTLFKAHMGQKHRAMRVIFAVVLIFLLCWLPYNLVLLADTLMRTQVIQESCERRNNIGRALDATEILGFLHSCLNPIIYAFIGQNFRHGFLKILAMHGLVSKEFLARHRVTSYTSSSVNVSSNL
Experiment: Inhibition of CXCR1/2 in human polymorphonucleate cells assessed as inhibition of CXCL8-induced chemotaxis at 10^-8 M incubated for 15 mins prior to CXCL8-induction measured after 45 mins
Details: not given

Structure (SMILES)	inhibition
C[C@H](C(=O)O)c1ccc(OS(=O)(=O)C(F)(F)F)cc1	inactive
CC(C)Cc1ccc([C@@H](C)C(=O)NS(C)(=O)=O)cc1 [REPARIXIN]	68%
C[C@@H](C(=O)NS(=O)(=O)C1CC1)c1ccc(OS(=O)(=O)C(F)(F)F)cc1	44%
C[C@@H](C(=O)Nc1nnc[nH]1)c1ccc(OS(=O)(=O)C(F)(F)F)cc1	44%
C[C@@H](C(=O)NOCC1CC1)c1ccc(OS(=O)(=O)C(F)(F)F)cc1	40%
C[C@@H](C(=O)Nc1nnco1)c1ccc(OS(=O)(=O)C(F)(F)F)cc1	44%
C[C@H](C(=O)NS(C)(=O)=O)c1ccc(OS(=O)(=O)C(F)(F)F)cc1	inactive
C[C@@H](C(=O)Nc1ncco1)c1ccc(OS(=O)(=O)C(F)(F)F)cc1	47%
C[C@@H](C(=O)Nc1nccs1)c1ccc(OS(=O)(=O)C(F)(F)F)cc1	56%
Cc1csc(NC(=O)[C@H](C)c2ccc(OS(=O)(=O)C(F)(F)F)cc2)n1	58%
C[C@@H](C(=O)Nc1ccccn1)c1ccc(OS(=O)(=O)C(F)(F)F)cc1	43%

System: not listed separately
Experiment: Elimination half life in Sprague-Dawley rat at 14 mg/kg, iv
Assay type: ADME, organism-based
Set-up: dose 14 mg/kg, route intravenous
Details: in vivo, read-out: beta t1/2 (converted)

Structure (SMILES)	half-life
CC(C)Cc1ccc([C@@H](C)C(=O)NS(C)(=O)=O)cc1 [REPARIXIN]	45 min
